Where “and” joins values, the source holds several entries; their conditions need not be identical. Identical values can stand only once. Entries after “also recorded” stand apart in the source; their conditions may differ.
Tested on: cultured rat forebrain neurons
Assay: Measurement of intracellular cGMP in neuronal cultures (enzyme-linked immunoassay)
Type: cell-based
Method: Medium was not subsequently changed.
Intracellular cGMP was assayed by enzyme-linked immunoassay (Amersham). Cultures were washed three times, and then medium was replaced by EBSS with or without PQQ or SOD. The non-specific phosphodiesterase inhibitor, 3-isobutyl-1-methylxanthine (IBMX) at 100 μM was present in all conditions. DEA/NO, SIN-1 and peroxynitrite were added for 5 min, and then the medium was replaced with 200 μl of releasing reagent provided in the kit. The plates were agitated for 20 min at room temperature, and 20 μl of acetylation reagent was added. After 5 min, 50 μl samples were taken for assay.

Compound: O=C(O)c1cc(C(=O)O)c2c(n1)C(=O)C(=O)c1cc(C(=O)O)[nH]c1-2 [PQQ, Pyrroloquinoline quinone]
- Intracellular cGMP content (DEA/NO 10 μM in the presence of PQQ 100 μM): 255±38 % of control
- Intracellular cGMP content (ONOO− 100 μM in the presence of PQQ 100 μM): 142.5±16.2 % of control
- Effect on cGMP levels in the presence of DEA/NO (PQQ 100 μM, DEA/NO 10 μM): did not significantly alter
- Effect on cGMP accumulation induced by SIN-1 (PQQ 100 μM, SIN-1 100 μM): potentiated; also recorded: enhanced
- Intracellular cGMP content (SIN-1 100 μM in the presence of PQQ 100 μM): 267±19.5 % of control and 313.5±45 % of control

Reference: patent publication US20030229114A1, “Pyrroloquinoline quinone drugs as a neuroprotectant and methods of use thereof” (priority 2002, published 2003)
